Read-outs that look alike come from different tables or passages of the source.
Key:
soybean 15-LOX [1] = target: T1, soybean 15-LOX (Glycine max, UniProt P08170); test: In vitro soybean 15-lipoxygenase inhibition assay (spectrophotometric, linoleic acid substrate); assay type: biochemical; settings: for inhibition at 100 µg/mL: read-out: % Inhibition (100 μg/mL)
T1 construct: purchased
T1 sequence (P08170 1-839): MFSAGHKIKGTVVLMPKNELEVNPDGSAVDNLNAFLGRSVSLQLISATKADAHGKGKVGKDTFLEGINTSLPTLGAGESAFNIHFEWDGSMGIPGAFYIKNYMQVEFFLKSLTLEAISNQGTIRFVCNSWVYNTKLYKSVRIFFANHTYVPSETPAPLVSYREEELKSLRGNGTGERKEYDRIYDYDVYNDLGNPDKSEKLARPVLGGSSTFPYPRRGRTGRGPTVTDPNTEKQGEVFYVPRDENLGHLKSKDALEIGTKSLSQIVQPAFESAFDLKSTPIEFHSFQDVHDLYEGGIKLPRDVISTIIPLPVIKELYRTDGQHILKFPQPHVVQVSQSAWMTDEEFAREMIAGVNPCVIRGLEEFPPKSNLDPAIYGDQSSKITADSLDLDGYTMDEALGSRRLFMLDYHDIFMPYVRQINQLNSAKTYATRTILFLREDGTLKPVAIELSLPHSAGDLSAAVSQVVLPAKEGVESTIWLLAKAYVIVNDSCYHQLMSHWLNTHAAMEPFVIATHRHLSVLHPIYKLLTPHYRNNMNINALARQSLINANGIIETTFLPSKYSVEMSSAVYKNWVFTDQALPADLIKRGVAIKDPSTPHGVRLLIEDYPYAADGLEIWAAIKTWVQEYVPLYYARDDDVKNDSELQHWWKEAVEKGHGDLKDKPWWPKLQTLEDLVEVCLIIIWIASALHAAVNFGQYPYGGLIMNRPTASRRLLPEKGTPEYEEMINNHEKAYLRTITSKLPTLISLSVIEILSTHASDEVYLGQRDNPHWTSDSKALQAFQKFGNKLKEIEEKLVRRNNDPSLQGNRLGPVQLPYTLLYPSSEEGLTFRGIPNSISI
Description: The target compounds (3a, 3c, 3e–g), intermediates (2a, 2c–g) and the starting material (1) were preliminary evaluated in vitro for their ability to inhibit soybean 15-LOX activity by using spectrophotometric method. Bioactivity screening for soybean 15-LOX inhibition by the target compounds was carried out at 100 μg/mL concentration. […] The bioactivities of the compounds were also compared to tHGA as the parent compound.
In vitro soybean 15-LOX inhibiting activity was measured using spectrophotometric method. In brief, sodium phosphate buffer (160 μL, 100 mM, pH 8.0), test sample (10 μL) and soybean 15-LOX (1.13.11.12) type I-B solution (20 μL, 320 U/well) were mixed and incubated for 15 min at 25 °C. The reaction was then initiated by the addition of the substrate in the form of linoleic acid (10 μL, 0.6 mM) solution. The enzymatic conversion of linoleic acid to form (9Z,11E)-(13S))-13-hydroperoxyoctadeca-9,11-dienoate end product was followed by the change of absorbance measured at 234 nm over a period for 6 min. Test samples and reference standards were dissolved in DMSO. Stock solutions were prepared at concentration 100 μg/mL for pure compounds. […] All reactions were performed in triplicate in a 96-well microtitre plate. The IC50 was calculated from the non-linear regression fitting curve of GraphPad Prism 5. The percentage of inhibition (%) can be calculated from the following formula [17]: [drawing 1] (1)

5-LOX = settings: cited from earlier work
soybean 15-LOX [2] = target: T1, soybean 15-LOX; parameters: method as in PMID 16644538; settings: initial finding; read-out: IC50 against soybean 15-LOX (earlier studies); cited from earlier work
[3] = test system: activated macrophage cells; parameters: method as in PMID 16644538; settings: cited from earlier work
[4] = test system: airway hyperresponsiveness to methacholine challenge; parameters: method as in PMID 21958738, PMID 22266348; settings: compared with Zileuton; cited from earlier work
[5] = soybean 15-LOX, read-out: IC50 Value (μM) Mean ± SEM
[6] = isolated from Hypericum empetrifolium, read-out: IC50 against 5-LOX
[7] = rounded values printed in Figure 1, read-out: 15-LOX IC50 (Figure 1)

Row | Molecule | inhibition at 100 µg/mL (soybean 15-LOX [1]; 100 μg/mL, mean ± SEM) | IC50 (soybean 15-LOX [1]; [5]) | also measured
1 | CC(C)C(=O)c1c(O)cc(O)cc1O [2a, 2-Methyl-1-(2,4,6-trihydroxyphenyl)propan-1-one] | 19.4 ± 5% | > 100 µM | –
2 | CCC(=O)c1c(O)cc(O)cc1O [2c, 1-(2,4,6-Trihydroxyphenyl)propan-1-one] | – | > 100 µM | % Inhibition (100 μg/mL) (soybean 15-LOX [1]; 100 μg/mL, mean ± SEM): did not exhibit any anti-inflammatory activity
3 | Oc1cc(O)cc(O)c1 [compound 1, phloroglucinol] | 23.2 ± 2.2% | > 100 µM | –
4 | O=C(/C=C/c1ccccc1)c1c(O)cc(O)cc1O [2g, (E)-3-Phenyl-1-(2,4,6-trihydroxyphenyl)prop-2-en-1-one] | – | > 100 µM | % Inhibition (100 μg/mL) (soybean 15-LOX [1]; 100 μg/mL, mean ± SEM): did not exhibit any anti-inflammatory activity
5 | CC(C)=CCC/C(C)=C/Cc1c(O)cc(O)c(C(=O)C2CCCCC2)c1O [3f, (E)-Cyclohexyl (3-(3,7-dimethylocta-2,6-dienyl)-2,4,6-trihydroxyphenyl)-methanone] | 88.8 ± 5.9% | 26.3 ± 1.3 µM | –
6 | CCCCC(=O)c1c(O)cc(O)cc1O [2e, 1-(2,4,6-Trihydroxyphenyl)pentan-1-one] | – | – | IC50 (soybean 15-LOX [1]): > 100 µM; inhibition at 100 µg/mL (soybean 15-LOX [1]): 24.5 ± 3.2%
7 | CC(C)=CCC/C(C)=C/Cc1c(O)cc(O)c(C(=O)C(C)C)c1O [3a, 3-Geranyl-1-(2'-methylpropanoyl)phloroglucinol] | 90.3 ± 4.1% | 27.6 ± 3.6 µM | IC50 (5-LOX; [6]): 2.2 µM; IC50 (soybean 15-LOX [1]; [7]): 27 µM
8 | CC(=O)c1c(O)cc(O)c(C/C=C(\C)CCC=C(C)C)c1O [tHGA, 2,4,6-trihydroxy-3-geranylacetophenone] | 94.3 ± 3.4% | 23.6 ± 1.7 µM | IC50 (soybean 15-LOX [2]): 20 µM; IC50 (5-LOX; Figure 1, read-out: 5-LOX IC50): 0.42 µM; inhibition of cysteinyl leukotriene secretion [3]: dose-dependent inhibition; efficacy in acute murine asthma model (airway hyperresponsiveness, cellular infiltration, cytokines, cysLT, IgE) [4]: as effective as Zileuton; IC50 (soybean 15-LOX [1]; [7]): 23 µM
9 | CCCCC(=O)c1c(O)cc(O)c(C/C=C(\C)CCC=C(C)C)c1O [3e, (E)-1-(3-(3,7-Dimethylocta-2,6-dienyl)-2,4,6-trihydroxyphenyl)pentan-1-one] | 90.3 ± 4.4% | 10.3 ± 1.5 µM | –
10 | CC(C)(C)C(=O)c1c(O)cc(O)cc1O [2d, 2,2-Dimethyl-1-(2,4,6-trihydroxyphenyl)propane-1-one] | 16.9 ± 1.9% | > 100 µM | –
11 | CC(C)=CCC/C(C)=C/Cc1c(O)cc(O)c(C(=O)/C=C/c2ccccc2)c1O [3g, (E)-1-(3-((E)-3,7-Dimethylocta-2,6-dienyl)-2,4,6-trihydroxyphenyl)-3-phenylprop-2-en-1-one] | 90.8 ± 7.6% | 15.2 ± 1.2 µM | –
12 | CCC(=O)c1c(O)cc(O)c(C/C=C(\C)CCC=C(C)C)c1O [3c, (E)-1-(3-(3,7-Dimethylocta-2,6-dienyl)-2,4,6-trihydroxyphenyl)propan-1-one] | 94.4 ± 3% | 12.3 ± 0.6 µM | –
13 | O=C(c1c(O)cc(O)cc1O)C1CCCCC1 [2f, Cyclohexyl(2,4,6-trihydroxyphenyl)methanone] | 17.5 ± 3% | > 100 µM | –
14 | 3-geranyl-1-(2'-methylbutanoyl)phloroglucinol [compound 4] | – | – | IC50 (5-LOX; [6]): 5.8 µM

— paper PMC6271415, “Synthesis and Docking Studies of 2,4,6-Trihydroxy-3-Geranylacetophenone Analogs as Potential Lipoxygenase Inhibitor” (Molecules, 2014)
